Read-outs that look alike come from different tables or passages of the source.
Target: T1, VLA-4 (Homo sapiens, UniProt P05556+P13612)
T1 construct: host or cells: Jurkat clone E6-1
Experiment: Adhesion of Jurkat cells to immobilized VCAM-1 (domains 1-3)
Format: cell-based
Parameters: scale not given here
Conditions: adhesion of CFSE-labeled Jurkat cells to recombinant human VCAM-1 (domains 1-3) coated plates, compounds as yielded by solid phase synthesis, purity about 40-90%
How it was run: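 CFSE-labelled Jurkat E6-1 cells in Tris buffer pH 7.4 with 2 mM MnCl2 were added to wells coated with insect-cell-expressed human VCAM-1 domains 1-3 (0.5 μg/ml coating solution); labelled cells were incubated for 30 min at 37 °C with the VLA-4 inhibitor.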

T1 sequence (P13612 34-1032): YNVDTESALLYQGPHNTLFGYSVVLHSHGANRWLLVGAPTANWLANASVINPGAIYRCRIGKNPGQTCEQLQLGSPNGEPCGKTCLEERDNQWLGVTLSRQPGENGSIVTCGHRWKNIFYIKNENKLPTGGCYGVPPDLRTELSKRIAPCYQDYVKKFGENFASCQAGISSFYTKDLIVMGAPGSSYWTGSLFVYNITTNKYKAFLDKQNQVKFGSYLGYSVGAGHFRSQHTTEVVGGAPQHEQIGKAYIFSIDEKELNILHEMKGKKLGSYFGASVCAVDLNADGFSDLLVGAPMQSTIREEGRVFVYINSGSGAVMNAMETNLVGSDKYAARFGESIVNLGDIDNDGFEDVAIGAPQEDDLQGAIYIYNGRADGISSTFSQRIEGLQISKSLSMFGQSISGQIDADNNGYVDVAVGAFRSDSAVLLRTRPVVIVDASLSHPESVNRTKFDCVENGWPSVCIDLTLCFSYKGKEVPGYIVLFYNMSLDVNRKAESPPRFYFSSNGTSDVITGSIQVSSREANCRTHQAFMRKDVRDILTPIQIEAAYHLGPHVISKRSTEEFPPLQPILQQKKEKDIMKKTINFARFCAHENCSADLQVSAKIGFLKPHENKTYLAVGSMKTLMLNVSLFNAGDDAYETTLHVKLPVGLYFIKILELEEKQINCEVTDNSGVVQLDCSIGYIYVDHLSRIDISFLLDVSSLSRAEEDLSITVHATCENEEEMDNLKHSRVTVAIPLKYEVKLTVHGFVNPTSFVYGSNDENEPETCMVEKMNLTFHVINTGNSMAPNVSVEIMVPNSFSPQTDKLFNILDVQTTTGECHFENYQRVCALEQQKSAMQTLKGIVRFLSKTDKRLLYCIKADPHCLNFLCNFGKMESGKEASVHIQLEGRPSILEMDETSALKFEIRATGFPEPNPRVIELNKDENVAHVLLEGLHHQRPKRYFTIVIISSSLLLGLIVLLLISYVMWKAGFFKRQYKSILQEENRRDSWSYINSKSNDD
T1 sequence (P05556 21-798): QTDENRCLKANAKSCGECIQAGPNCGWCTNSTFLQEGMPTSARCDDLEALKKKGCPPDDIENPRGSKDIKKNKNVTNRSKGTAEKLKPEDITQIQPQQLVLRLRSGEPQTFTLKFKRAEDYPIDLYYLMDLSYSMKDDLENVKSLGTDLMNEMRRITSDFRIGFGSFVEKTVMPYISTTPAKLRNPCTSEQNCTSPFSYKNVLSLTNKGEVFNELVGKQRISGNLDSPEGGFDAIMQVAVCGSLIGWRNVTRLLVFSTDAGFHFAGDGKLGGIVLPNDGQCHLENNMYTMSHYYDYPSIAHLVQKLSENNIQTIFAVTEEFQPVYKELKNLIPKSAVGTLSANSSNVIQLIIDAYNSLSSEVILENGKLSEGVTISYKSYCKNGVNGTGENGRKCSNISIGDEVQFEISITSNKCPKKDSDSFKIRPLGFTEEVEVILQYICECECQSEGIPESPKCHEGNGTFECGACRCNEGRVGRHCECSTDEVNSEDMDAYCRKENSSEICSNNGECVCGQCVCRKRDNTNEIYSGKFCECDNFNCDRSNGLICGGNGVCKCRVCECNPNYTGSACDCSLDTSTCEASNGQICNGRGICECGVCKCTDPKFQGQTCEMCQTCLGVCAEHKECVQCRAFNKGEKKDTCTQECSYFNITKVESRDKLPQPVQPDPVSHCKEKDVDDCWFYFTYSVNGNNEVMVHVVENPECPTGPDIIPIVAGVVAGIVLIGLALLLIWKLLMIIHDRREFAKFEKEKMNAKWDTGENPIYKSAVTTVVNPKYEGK

Row | Compound | IC50 (read-out: IC50) [nM] | IC50
1 | Cc1ccccc1-c1ccc(C[C@H](NC(=O)C2CCCN(S(=O)(=O)c3c(Cl)cccc3Cl)C2)C(=O)O)cc1 (stereo partly drawn) [Example 1.3, (2S)-2-[({1-[(2,6-dichlorophenyl)sulfonyl]-3-piperidinyl}carbonyl)amino]-3-(2′-methyl[1,1′-biphenyl]-4-yl)propanoic acid] | 500 to 2000 | 
2 | O=C(N[C@@H](Cc1ccc(-c2cc(Cl)ccc2Cl)cc1)C(=O)O)C1CCCN(c2ncnc(NCCN3CCCC3)c2F)C1 (stereo partly drawn) [Example 2.39] | 500 to 2000 | 
3 | O=C(N[C@@H](Cc1ccc(-c2cc(Cl)ccc2Cl)cc1)C(=O)O)C1CCCN(c2ncnc(N3CCNCC3)c2F)C1 (stereo partly drawn) [Example 2.2, (2S)-3-(2′,5′-dichloro[1,1′-biphenyl]-4-yl)-2-[({1-[5-fluoro-6-(1-piperazinyl)-4-pyrimidinyl]-3-piperidinyl}carbonyl)amino]propanoic acid] | ≤ 500 | 
4 | O=C(N[C@@H](Cc1ccc(-c2ccc(Cl)cc2Cl)cc1)C(=O)O)C1CCCN(C(=O)c2cccc(Cl)c2)C1 (stereo partly drawn) [Example 1.41] |  | C-D
5 | Cc1ccc(-c2ccc(C[C@H](NC(=O)C3CCCN(c4ncnc(N5CCNCC5)c4F)C3)C(=O)O)cc2)cc1 (stereo partly drawn) [Example 2.9] |  | B-C
6 | Cc1cc(C)c(OC(=O)N2CCCC(C(=O)N[C@@H](Cc3ccc(-c4ccc(Cl)cc4Cl)cc3)C(=O)O)C2)c(C)c1 (stereo partly drawn) [Example 1.47] |  | C-D
7 | COc1ccccc1-c1ccc(C[C@H](NC(=O)C2CCCN(c3ncnc(N4CCNCC4)c3F)C2)C(=O)O)cc1 (stereo partly drawn) [Example 2.54] | ≤ 500 | 
8 | O=C(N[C@@H](Cc1ccc(-c2ccc(Cl)cc2Cl)cc1)C(=O)O)C1CCCN(S(=O)(=O)c2ccc3ccccc3c2)C1 (stereo partly drawn) [Example 1.96] |  | C-D
9 | Cc1ccccc1-c1ccc(C[C@H](NC(=O)C2CCCN(c3ncnc(NC4Cc5ccccc5C4)c3F)C2)C(=O)O)cc1 (stereo partly drawn) [Example 2.31] |  | C-D
10 | O=C(N[C@@H](Cc1ccc(-c2cc(Cl)ccc2Cl)cc1)C(=O)O)C1CCCN(C(=O)C2CCCCC2)C1 (stereo partly drawn) [Example 1.53] |  | C-D
11 | O=C(N[C@@H](Cc1ccc(-c2cc(Cl)ccc2Cl)cc1)C(=O)O)C1CCCN(c2ncnc(N3CCOCC3)c2F)C1 (stereo partly drawn) [Example 2.3, (2S)-3-(2′,5′-dichloro[1,1′-biphenyl]-4-yl)-2-[({1-[5-fluoro-6-(4-morpholinyl)-4-pyrimidinyl]-3-piperidinyl}carbonyl)amino]propanoic acid] | ≤ 500 | 
12 | O=C(N[C@@H](Cc1ccc(-c2cc(Cl)ccc2Cl)cc1)C(=O)O)C1CCCN(c2ncnc(NC3Cc4ccccc4C3)c2F)C1 (stereo partly drawn) [Example 2.38] |  | C-D
13 | CN(Cc1ccccc1)c1ncnc(N2CCCC(C(=O)N[C@@H](Cc3ccc(-c4cc(Cl)ccc4Cl)cc3)C(=O)O)C2)c1F (stereo partly drawn) [Example 2.36] |  | C-D
14 | Cc1ccc(-c2ccc(C[C@H](NC(=O)C3CCCN(c4ncnc(N(C)Cc5ccccc5)c4F)C3)C(=O)O)cc2)cc1 (stereo partly drawn) [Example 2.8] |  | C-D
15 | O=C(N[C@@H](Cc1ccc(-c2ccc(Cl)cc2Cl)cc1)C(=O)O)C1CCCN(S(=O)(=O)Cc2ccccc2)C1 (stereo partly drawn) [Example 1.101] |  | C-D
16 | Cc1ccccc1-c1ccc(C[C@H](NC(=O)C2CCCN(c3ncnc(NCc4ccccn4)c3F)C2)C(=O)O)cc1 (stereo partly drawn) [Example 2.24] |  | C-D
17 | COc1ccc(-c2ccc(C[C@H](NC(=O)C3CCCN(c4ncnc(N(C)Cc5ccccc5)c4F)C3)C(=O)O)cc2)cc1 (stereo partly drawn) [Example 2.18] |  | C-D

Row | Compound | IC50 (read-out: IC50) [nM] | IC50
18 | O=C(N[C@@H](Cc1ccc(-c2ccc(Cl)c(Cl)c2)cc1)C(=O)O)C1CCCN(c2ncnc(N3CCOCC3)c2F)C1 (stereo partly drawn) [Example 2.44] |  | C-D
19 | COc1ccc(-c2ccc(C[C@H](NC(=O)C3CCCN(c4ncnc(N5CCCCC5)c4F)C3)C(=O)O)cc2)cc1 (stereo partly drawn) [Example 2.16] |  | C-D
20 | O=C(N[C@@H](Cc1ccc(-c2ccccc2)cc1)C(=O)O)C1CCCN(S(=O)(=O)c2c(Cl)cccc2Cl)C1 (stereo partly drawn) [Example 1.59] |  | C-D
21 | COc1ccc(-c2ccc(C[C@H](NC(=O)C3CCCN(c4ncnc(NCCN5CCCC5)c4F)C3)C(=O)O)cc2)cc1 (stereo partly drawn) [Example 2.22] |  | C-D
22 | Cc1ccccc1-c1ccc(C[C@H](NC(=O)C2CCCN(S(=O)(=O)Cc3ccccc3)C2)C(=O)O)cc1 (stereo partly drawn) [Example 1.91] |  | C-D
23 | Cc1ccc(C(=O)N2CCCC(C(=O)N[C@@H](Cc3ccc(-c4ccccc4)cc3)C(=O)O)C2)cc1 (stereo partly drawn) [Example 1.9] |  | C-D
24 | Cc1ccccc1-c1ccc(C[C@H](NC(=O)C2CCCN(c3ncnc(N(C)Cc4ccccc4)c3F)C2)C(=O)O)cc1 (stereo partly drawn) [Example 2.28] |  | C-D
25 | COc1ccc(S(=O)(=O)N2CCCC(C(=O)N[C@@H](Cc3ccc(-c4ccccc4C)cc3)C(=O)O)C2)cc1OC (stereo partly drawn) [Example 1.88] | 2000 to 10000 | 
26 | COc1ccc(-c2ccc(C[C@H](NC(=O)C3CCCN(c4ncnc(NC5Cc6ccccc6C5)c4F)C3)C(=O)O)cc2)cc1 (stereo partly drawn) [Example 2.21] |  | C-D
27 | Cc1cc(Cl)c(CC(=O)N2CCCC(C(=O)N[C@@H](Cc3ccc(-c4ccc(Cl)cc4Cl)cc3)C(=O)O)C2)c(Cl)c1 (stereo partly drawn) [Example 1.45] |  | C-D
28 | Cc1ccc(-c2ccc(C[C@H](NC(=O)C3CCCN(S(=O)(=O)c4cc(Cl)cc(Cl)c4)C3)C(=O)O)cc2)cc1 (stereo partly drawn) [Example 1.74] |  | C-D
29 | O=C(N[C@@H](Cc1ccc(-c2ccc(Cl)c(Cl)c2)cc1)C(=O)O)C1CCCN(c2ncnc(NCc3ccccn3)c2F)C1 (stereo partly drawn) [Example 2.41] |  | C-D
30 | O=C(N[C@@H](Cc1ccc(-c2cc(Cl)ccc2Cl)cc1)C(=O)O)C1CCCN(c2ncnc(NC3CCCCC3)c2F)C1 (stereo partly drawn) [Example 2.34] | 2000 to 10000 | 
31 | Cc1ccccc1-c1ccc(C[C@H](NC(=O)C2CCCN(C(=O)C3CCCCC3)C2)C(=O)O)cc1 (stereo partly drawn) [Example 1.34] |  | C-D
32 | COc1ccc(OC(=O)N2CCCC(C(=O)N[C@@H](Cc3ccc(NC(=O)N4CCN(c5ccccc5)CC4)cc3)C(=O)O)C2)cc1 (stereo partly drawn) [Example 4.19] | 2000 to 10000 | 
33 | COc1ccc(-c2ccc(C[C@H](NC(=O)C3CCCN(c4ncnc(N5CCOCC5)c4F)C3)C(=O)O)cc2)cc1 (stereo partly drawn) [Example 2.17] |  | C-D
34 | Cc1ccc(-c2ccc(C[C@H](NC(=O)C3CCCN(c4ncnc(NCc5ccccn5)c4F)C3)C(=O)O)cc2)cc1 (stereo partly drawn) [Example 2.4] | 2000 to 10000 | 

Now from value to compound:

Row | IC50 (read-out: IC50) [nM] | IC50 | Compound
35 | 2000 to 10000 |  | CN1CCN(C(=O)Nc2ccc(C[C@H](NC(=O)C3CCCN(c4ncnc(N5CCc6ccccc6C5)c4F)C3)C(=O)O)cc2)CC1 (stereo partly drawn) [Example 5.27]
36 | 500 to 2000 |  | COc1ccc(CCNc2ncnc(N3CCCC(C(=O)N[C@@H](Cc4ccc(NC(=O)N5CCN(C)CC5)cc4)C(=O)O)C3)c2F)cc1 (stereo partly drawn) [Example 5.7]
37 | ≤ 500 |  | COc1ccccc1C(=O)N1CCCC(C(=O)N[C@@H](Cc2ccc(NC(=O)N3CCCCC3)cc2)C(=O)O)C1 (stereo partly drawn) [Example 4.12]
38 | 500 to 2000 |  | COc1ccccc1NC(=O)N1CCCC(C(=O)N[C@H](Cc2ccc(NC(=O)N3CCN(c4ccccc4)CC3)cc2)C(=O)O)C1 (stereo partly drawn) [Example 4.55]
39 | 500 to 2000 |  | O=C(N[C@@H](Cc1ccc(NC(=O)N2CCOCC2)cc1)C(=O)O)C1CCCN(c2ncnc(NCc3ccccn3)c2F)C1 (stereo partly drawn) [Example 5.47]
40 | 2000 to 10000 |  | Cc1ccc(S(=O)(=O)N2CCCC(C(=O)N[C@@H](Cc3ccc(NC(=O)NC4CCN(Cc5ccccc5)CC4)cc3)C(=O)O)C2)cc1 (stereo partly drawn) [Example 4.32]
41 | 500 to 2000 |  | CN1CCN(C(=O)Nc2ccc(C[C@H](NC(=O)C3CCCN(c4ncnc(NCC5CCNCC5)c4F)C3)C(=O)O)cc2)CC1 (stereo partly drawn) [Example 5.32]
42 | 500 to 2000 |  | O=C(N[C@@H](Cc1ccc(NC(=O)N2CCOCC2)cc1)C(=O)O)C1CCCN(c2ncnc(N3CCCCCC3)c2F)C1 (stereo partly drawn) [Example 5.21]
43 | 2000 to 10000 |  | CN(C)CCNc1ncnc(N2CCCC(C(=O)N[C@H](Cc3ccc(NC(=O)N4CCN(C)CC4)cc3)C(=O)O)C2)c1F (stereo partly drawn) [Example 5.5]
44 | ≤ 500 |  | O=C(N[C@@H](Cc1ccc(NC(=O)N2CCOCC2)cc1)C(=O)O)C1CCCN(C(=O)c2ccccc2F)C1 (stereo partly drawn) [Example 4.49]
45 | 500 to 2000 |  | COCCN(C)c1ncnc(N2CCCC(C(=O)N[C@@H](Cc3ccc(NC(=O)N4CCN(c5ccccc5)CC4)cc3)C(=O)O)C2)c1F (stereo partly drawn) [Example 5.46]
46 | 500 to 2000 |  | CN1CCN(C(=O)Nc2ccc(C[C@H](NC(=O)C3CCCN(S(C)(=O)=O)C3)C(=O)O)cc2)CC1 (stereo partly drawn) [Example 4.5]
47 | 500 to 2000 |  | O=C(N[C@@H](Cc1ccc(NC(=O)N2CCCCC2)cc1)C(=O)O)C1CCCN(S(=O)(=O)Cc2ccccc2)C1 (stereo partly drawn) [Example 4.7]
48 | 500 to 2000 |  | O=C(N[C@@H](Cc1ccc(NC(=O)N2CCN(c3ccccc3)CC2)cc1)C(=O)O)C1CCCN(c2ncnc(NCc3cccnc3)c2F)C1 (stereo partly drawn) [Example 5.30]
49 | 500 to 2000 |  | CN1CCN(C(=O)Nc2ccc(C[C@H](NC(=O)C3CCCN(c4ncnc(NCc5ccncc5)c4F)C3)C(=O)O)cc2)CC1 (stereo partly drawn) [Example 5.31]
50 | 2000 to 10000 |  | O=C(N[C@@H](Cc1ccc(NC(=O)N2CCOCC2)cc1)C(=O)O)C1CCCN(c2ncnc(N3CCCC3)c2F)C1 (stereo partly drawn) [Example 5.9]
51 | 2000 to 10000 |  | O=C(N[C@@H](Cc1ccc(NC(=O)N2CCOCC2)cc1)C(=O)O)C1CCCN(c2ncnc(NC3CCN(Cc4ccccc4)CC3)c2F)C1 (stereo partly drawn) [Example 5.22]
52 | ≤ 500 |  | COc1ccc(S(=O)(=O)N2CCCC(C(=O)NC(Cc3ccc(NC(=O)N4CCc5ccccc5C4)cc3)C(=O)O)C2)cc1OC (stereo not drawn) [Example 4.48]
53 | ≤ 500 |  | Nc1ncnc(N2CCCC(C(=O)N[C@@H](Cc3ccc(NC(=O)N4CCN(c5ccccc5)CC4)cc3)C(=O)O)C2)c1F (stereo partly drawn) [Example 5.42]
54 | 500 to 2000 |  | O=C(N[C@@H](Cc1ccc(NC(=O)N2CCOCC2)cc1)C(=O)O)C1CCCN(C(=O)NC2CCCCC2)C1 (stereo partly drawn) [Example 4.58]
55 | ≤ 500 |  | O=C(N[C@@H](Cc1ccc(NC(=O)N2CCN(c3ccccc3)CC2)cc1)C(=O)O)C1CCCN(C(=O)Cc2cccs2)C1 (stereo partly drawn) [Example 4.18]
56 | 500 to 2000 |  | CN1CCN(C(=O)Nc2ccc(C[C@H](NC(=O)C3CCCN(c4ncnc(N5CCCCCC5)c4F)C3)C(=O)O)cc2)CC1 (stereo partly drawn) [Example 5.20]
57 | 500 to 2000 |  | COc1ccc(Cl)cc1S(=O)(=O)N1CCCC(C(=O)N[C@@H](Cc2ccc(NC(=O)N3CCN(c4ccccc4)CC3)cc2)C(=O)O)C1 (stereo partly drawn) [Example 4.38]

— patent publication US6794386B2, “β-amino acid compounds as integrin antagonists” (Bayer Aktiengesellschaft, priority 2000, dated 2004)
